{"source": "paper PMC11643494", "about": "“Structure–Activity Relationship Studies in a Series of 2-Aryloxy-N-(pyrimidin-5-yl)acetamide Inhibitors of SLACK Potassium Channels” (Molecules, 2024)", "molecular_target": "T1, Human G288S SLACK (Homo sapiens, UniProt Q5JUK3, G269S)", "T1 construct": "host or cells: CHO-K1", "T1 sequence (Q5JUK3 1-1235 isoform Q5JUK3-3 G288S)": "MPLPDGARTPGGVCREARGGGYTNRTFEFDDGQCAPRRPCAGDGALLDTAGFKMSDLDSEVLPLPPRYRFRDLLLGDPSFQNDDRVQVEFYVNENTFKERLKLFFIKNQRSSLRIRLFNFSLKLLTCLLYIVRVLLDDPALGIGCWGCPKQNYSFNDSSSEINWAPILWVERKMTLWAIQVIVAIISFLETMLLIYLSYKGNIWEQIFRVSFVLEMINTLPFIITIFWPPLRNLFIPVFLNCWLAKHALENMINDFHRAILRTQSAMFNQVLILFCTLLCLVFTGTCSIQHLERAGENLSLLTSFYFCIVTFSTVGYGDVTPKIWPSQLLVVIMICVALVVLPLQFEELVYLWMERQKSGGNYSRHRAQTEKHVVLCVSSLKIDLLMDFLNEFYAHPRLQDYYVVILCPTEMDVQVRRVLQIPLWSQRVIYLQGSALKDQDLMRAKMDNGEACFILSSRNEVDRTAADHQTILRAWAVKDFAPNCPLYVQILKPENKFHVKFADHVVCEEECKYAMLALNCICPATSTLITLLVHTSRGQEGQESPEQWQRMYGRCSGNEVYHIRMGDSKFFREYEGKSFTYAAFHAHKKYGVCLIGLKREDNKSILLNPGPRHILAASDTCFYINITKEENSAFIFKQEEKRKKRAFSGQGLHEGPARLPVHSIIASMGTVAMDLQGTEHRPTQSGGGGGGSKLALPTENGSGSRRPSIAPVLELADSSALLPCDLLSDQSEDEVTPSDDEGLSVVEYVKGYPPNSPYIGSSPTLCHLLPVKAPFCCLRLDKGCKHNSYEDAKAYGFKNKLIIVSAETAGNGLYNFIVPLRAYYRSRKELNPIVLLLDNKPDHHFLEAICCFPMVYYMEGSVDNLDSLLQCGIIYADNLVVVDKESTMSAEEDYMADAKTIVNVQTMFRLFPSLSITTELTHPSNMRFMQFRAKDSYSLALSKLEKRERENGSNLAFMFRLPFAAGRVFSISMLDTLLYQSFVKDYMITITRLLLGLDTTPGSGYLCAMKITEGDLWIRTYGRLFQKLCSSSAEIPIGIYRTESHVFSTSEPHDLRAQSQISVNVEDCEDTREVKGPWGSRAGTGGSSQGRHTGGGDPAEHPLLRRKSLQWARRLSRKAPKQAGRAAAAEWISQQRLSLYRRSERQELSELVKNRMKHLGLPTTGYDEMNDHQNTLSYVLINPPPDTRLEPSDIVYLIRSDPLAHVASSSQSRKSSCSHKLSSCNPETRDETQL", "assay": "Whole-cell APC in CHO-K1 cells stably expressing human G288S SLACK", "assay_type": "cell-based", "text": "Finally, we chose to screen the same two compounds versus mouse SLACK and two clinically relevant GOF SLACK mutants in APC assays utilizing CHO-K1 cells stably expressing these targets (Table 7). Screening versus the mouse homolog was deemed important for evaluating the potential of the series to ultimately lead to a useful in vivo tool via further optimization.\nStably transfected monoclonal HEK293 cell lines expressing SLICK, Maxi-K α1/β3, Maxi-K α1/β4, CaV3.2, GIRK 1/2, KV2.1, KV7.2, NaV1.7, and TASK-1 were generated as previously described. Stably transfected monoclonal HEK293 cell lines expressing hERG were generated as previously described. CHO-K1 cells expressing human SLACK and disease-associated human SLACK mutations, G288S and A934T, were generated by transfecting a PiggyBac TRE mammalian expression vector (VectorBuilder, Chicago, IL, USA) containing KCNT1. FuGENE 6 (Promega, Madison, WI, USA) transfection reagent and protocol, together with Opti-MEM (Thermo Fisher Scientific, Waltham, MA, USA), were utilized according to the manufacturer’s instructions.\nAutomated patch clamp recording was performed with a SyncroPatch 768 PE system (Nanion, Munich, Germany) as previously described. Whole-cell recordings were performed at room temperature. Cells were harvested by first washing with PBS without Mg^2+ or Ca^2+ (Gibco, Billings, MT, USA) to remove cell culture medium, followed by dissociation with TryPLE (Gibco, Billings, MT, USA). Cells were then resuspended and diluted to 200,000 cells/mL in external solution. External solution contained 105 mM NaCl, 4 mM KCl, 1 mM MgCl2, 5 mM CaCl2, 10 mM HEPES, 40 mM N-Methyl-D-glucamine chloride, titrated to pH 7.4 with NaOH and osmolarity of 300 mOsm/kg; internal solution contained 70 mM NaCl, 70 mM KF, 10 mM KCl, 5 mM EGTA, 5mM HEPES, titrated to a pH 7.2 with KOH and osmolarity of 295 mOsm/kg.\nThe APC protocol was set as following: Cells were held at […] −80 mV for 100 ms, then a ramp protocol was performed from −100 mV to 80 mV at 0.4 mV/ms, hold the cell at −80 mV for another 100 ms, then steps were performed at −20 mV, 0 mV, +20 mV, +40 mV, and +60 mV for 100 ms of each step. Whole-cell currents were measured at 0 mV and normalized to current after external buffer addition.", "data": [{"compound": "CN(c1ccc(C#N)cc1)c1ncc(NC(=O)C(C)(C)Oc2ccc(Cl)cc2)cn1", "note": "[Analog 66]", "values": [{"measurement": "G288S SLACK inhibition, result in words", "setting": "APC, CHO-K1 cells", "value": "only weakly active"}, {"measurement": "IC50", "setting": "APC, CHO-K1 cells, Human G288S SLACK", "value": "> 10", "unit": "µM"}, {"measurement": "Imax", "setting": "Human G288S SLACK, maximum inhibition at 30 µM standardized to VU0606170 (set at 100%)", "value": 40, "unit": "%"}]}, {"compound": "CC(C)(Oc1ccc(Cl)cc1)C(=O)Nc1cnc(Oc2c(F)cccc2F)nc1", "note": "[Analog 40]", "values": [{"measurement": "G288S SLACK inhibition, result in words", "setting": "APC, CHO-K1 cells", "value": "inactive"}]}]}
